# Laboratory results: patent US20240173325A1, “METHODS FOR TREATING SPINAL MUSCULAR ATROPHY” (Genentech, Inc., priority 2022, published 2024)
# Where two headings read alike, the source gives them in different places.
# Assays:
# SMN protein = SMN protein levels in whole blood (Roche Elecsys immunoassay); assay type: in vivo, human
# Procedure: Table 7A and Table 7B presents SMN protein levels in whole blood (measured in ng/mL) in the carrier and the subject as the fetal subject and the neonatal subject of this Example, and reference values are shown in Table 7C below. Table 7B is a continuation of Table 7A from 32.5 weeks gestation prior to administration of risdiplam to the carrier through 43 days post-delivery. SMN protein levels in the whole blood were performed using an immunoassay developed by Roche Diagnostics on the Elecsys® platform.
# [1] = tested on: FMO1 and FMO3, CYPs 1A1, 2J2, 3A4, and 3A7; conditions: cited from earlier work
# neurofilament = assay: Neurofilament light and phosphorylated heavy chain ELISA on plasma and serum; assay type: in vivo, human
# Procedure: Neurofilament light and phosphorylated heavy chain assays were performed on plasma and serum samples using an ELISA assay, following the manufacturer's instructions (ProteinSimple, San Jose, CA, USA). Two runs were performed, each run having 3 aliquots run on the same plate and the mean value utilized. The average of the two runs was used for interpretation and in constructing FIG. 3 and FIG. 4.
# The x-axis in FIG. 3 and FIG. 4 is associated with the date. The x-axis in FIG. 3 includes both prenatal dates (e.g., 32.5 WG or weeks gestation-37.6 WG) and postnatal dates or “PND” (e.g., d0-d43, referring to days post-birth of the fetal subject as the neonatal subject). The y- axis in FIG. 3 and FIG. 4 is associated with the mean neurofilament levels in blood (measured in pg/mL).
# Further, in FIG. 3 and FIG. 4, “NF-L” refers to “neurofilament light chain,” which is a neuronal protein highly expressed in large caliber myelinated axons. NF-L levels increase in cerebrospinal fluid and blood proportionally to the degree of axonal damage in a variety of neurological disorders, including inflammatory, neurodegenerative, traumatic and cerebrovascular diseases. See Gaetani (2019) J. Neurol. Neurosurg. Psychiatry. 90(8):870-881. Additionally, “pNF-H” refers to the phosphorylated neurofilament heavy subunit (or phosphorylated NF-H). Further, as shown in FIG. 3 and FIG. 4, “Ser” refers to blood serum and “Pla” refers to blood plasma.
# neonatal subject = assay: Electrophysiological testing (CMAP, MUNE); assay type: in vivo, human
# Procedure: The electrophysiological testing described in this Example can serve as a prognostic biomarker. See Pino (2021) Biomark. Insights. 16:11772719211035643. Electrophysiological studies were performed using standard technique on a Natus UltraPro S100 instrument, with Natus pre-gelled disposable surface electrodes (#901350242) and standard settings for motor nerve conduction studies (LFF 10 Hz and HFF […]). The right ulnar nerve was stimulated at the elbow and recorded from the abductor digiti minimi (ADM) and the peroneal (fibular) nerve was stimulated at the knee and recorded from the tibialis anterior (TA) muscle.
# Electrophysiological measurements, such as the compound muscle action potential (CMAP) in millivolts (mV) and motor unit number estimation (MUNE), monitor the functional status of the motor unit pool and are particularly pertinent to motor neuron disorders. See Arnold (2014) Ann. Clin. Transl. Neurol. 1(1):34:44. Cross-sectional studies have shown that CMAP and MUNE correlate with other measures of motor function, clinical severity, and overall function. See Arnold (2014) Ann. Clin. Transl. Neurol. 1(1):34:44.
# The CMAP response measures the output of the motor units supplying a particular muscle or group of muscles. The CMAP size is determined by the size and number of depolarized muscle fibers following supramaximal nerve stimulation. Three active electrode placements were used for each nerve tested and the maximal amplitude of the negative peak of the CMAP was used for analysis. As a reference study for the CMAP data provided in Table 6, an ongoing Phase 2, open-label study (NURTURE) aims to evaluate the safety and efficacy of nusinersen in preventing or profoundly attenuating the severity of SMA when initiated prior to the onset of symptoms. See De Vivo (2019) Neuromuscul. Disord. 29(11):842-856. In accordance with this reference study, CMAP amplitudes were mean (SD) 2.7 (1.5) and median (range) 2.3 (1.0-6.7) and NeuroNEXT (typically developing infants) was mean (SD) 5.5±2.0. See Kolb (2016) Ann. Clin. Transl. Neurol. 3(2):132-45.
# MUNE is an electrophysiological method that can measure the number of motor units supplying a particular muscle. It should be appreciated that the “N” of MUNE (ulnar N) in Table 6 refers to “nerve.” For pre-symptomatic SMA neonates, MUNE (ulnar N) ranges from 70-270. See Bromberg (2002) Muscle Nerve. 25(3):445-7; and Swoboda (2005) Ann Neurol. 57(5):704-12. In this Example, the MUNE was performed on the right ulnar nerve using the multipoint technique. A minimum of ten unique single motor unit potentials were captured with the mean value used for the calculation of the MUNE. […] See Swoboda, et al. (2005) Ann. Neurol. 57:704-712; and Bromberg (2002) Muscle Nerve 25:445-447.
# rabbit fetuses = conditions: cited from earlier work
# [2] = rodents and rabbits; cited from earlier work
smiles,measurement,setting,value
"Cc1cn2nc(-c3cc(=O)n4cc(N5CCNC6(CC6)C5)ccc4n3)cc(C)c2n1 [risdiplam, 7-(4,7-diazaspiro[2.5]octan-7-yl)-2-(2,8-dimethylimidazo[1,2-b]pyridazin-6-yl)-4H-pyrido[1,2-a]pyrimidin-4-one]",SMN protein level in whole blood relative to reference amounts,"SMN protein; at d0, versus reference study (FIG. 2)",about two
same,SMN protein level in whole blood,"SMN protein; carrier, 32.5 WG (pre-risdiplam)",7.7 ng/mL
same,SMN protein level in whole blood,"SMN protein; carrier, 36 WG",6.3 ng/mL
same,SMN protein level in whole blood,"SMN protein; carrier, 38 WG",6.0 ng/mL
same,SMN protein level in whole blood,"SMN protein; carrier, birth 38.5 WG",4.0 ng/mL
same,SMN protein level in whole blood,"SMN protein; carrier, d 20 post birth",5.0 ng/mL
same,SMN protein level in whole blood,"SMN protein; carrier, d 29 post birth",5.1 ng/mL
same,SMN protein level in whole blood,"SMN protein; carrier, d 43 post birth",4.6 ng/mL
same,Decline of SMN protein level,"SMN protein; carrier, from prenatal treatment until delivery",48%
same,Increase of SMN protein level,"SMN protein; carrier, postpartum period",15-28%
same,Increase of SMN protein level,"SMN protein; neonatal subject, at d43 following drug initiation on d8",36%
same,SMN protein level in whole blood,"SMN protein; neonatal subject, birth 38.5 WG (cord)",9.4 ng/mL
same,SMN protein level in whole blood,"SMN protein; neonatal subject, d 8, no drug since birth",4.5 ng/mL
same,SMN protein level in whole blood,"SMN protein; neonatal subject, d 43, oral 0.15 mg/kg/day from d8",6.1 ng/mL
same,Activity of metabolites,[1],inactive
same,Metabolizing enzymes,[1],"primarily metabolized by flavin monooxygenase 1 and 3 (FMO1 and FMO3) and also by CYPs 1A1, 2J2, 3A4, and 3A7"
same,pNF-H level in neonatal subject compared to the carrier,neurofilament; at delivery,about 10 fold
same,NF-L levels,"neurofilament; carrier and neonatal subject, FIG. 3 and FIG. 4","low, with little change"
same,Increase of post-partum pNF-H levels,"neurofilament; carrier, 6-week observation period",approximately 2 fold
same,pNF-H level relative to lowest value in NURTURE study participants,neurofilament; neonatal subject,35%
same,pNF-H level relative to NURTURE median value (20881),neurofilament; neonatal subject versus pre-symptomatic SMN2X2 infants under 6 weeks,1.4%
same,pNF-H level,"neurofilament; neonatal subject, data point of FIG. 4 correlated to FIG. 5",293 pg/mL
same,MUNE (Ulnar N),neonatal subject; 1 week,167
same,Peroneal N CMAP,neonatal subject; 1 week,2.7 mV
same,Ulnar N CMAP,neonatal subject; 1 week,4.6 mV
same,Ulnar nerve CMAP relative to NURTURE median 2.3 mV,neonatal subject; 1 week,2 fold
same,MUNE (Ulnar N),neonatal subject; 6 weeks,313
same,Peroneal N CMAP,neonatal subject; 6 weeks,3.5 mV
same,Ulnar N CMAP,neonatal subject; 6 weeks,5.8 mV
same,Ulnar nerve CMAP relative to NURTURE median 2.3 mV,neonatal subject; 6 weeks,2.5 fold
same,MUNE (Ulnar N),neonatal subject; 18 weeks,296
same,Ulnar N CMAP,neonatal subject; 18 weeks,7.1 mV
same,Findings in rabbit fetuses,rabbit fetuses; at about 12 mg/kg/day,"hydrocephalus, an abnormally small gall bladder, and lung variations"
same,Findings in rabbit fetuses,rabbit fetuses; dams treated at about 1 mg/kg/day to about 12 mg/kg/day,reduced weight gain and cranium or brain variations
same,Placental transfer,[2],crosses the placenta
